The values below come from patent US6884423B1, “Antimicrobial histone H1 compositions, kits, and methods of use thereof” (Symbiotec GmbH, priority 1998, dated 2005).

The test system of data set [1] is E. coli strain AB1157. As to the kind of experiment: Fractional survival of histone H1-contacted cells by colony counting. The procedure:
Purified bovine histone H1 was prepared as described herein in Example 1. Cells of E. coli strain AB1157 (obtained from ATCC) were grown in NYET medium (4 grams per liter nutrient broth, 7.5 grams per liter yeast extract, and 4 grams per lither tryptone) at 37° C. E. coli cells in approximately the exponential growth phase were incubated in Sorensen buffer (41 mM Na2HPO4, 25.7 mM KH2PO4) for twenty minutes in the presence of a selected concentration of histone H1. The fractional survival of histone H1-contacted cells, relative to cells which were not contacted with histone H1 was determined by counting colonies using an automated colony counter (3M model 620). About 200 microliters of an H1-containing bacterial suspension was plated into Petri dishes by adding 10 milliliters of 57° C. medium containing 1.5% (w/w) Bacto agar. […]
Purified bovine histone H1 was prepared as described herein in Example 1. Cells of E. coli strain AB1157 were incubated in Sorensen buffer at a selected temperature for a selected period in the presence of a 1.9 micromolar histone H1 The fractional survival of histone H1-contacted cells, relative to cells not contacted with histone H1 was determined as described herein in Example 4. […] Normal human body temperature is about 37° C. […]
Purified bovine histone H1 was prepared as described herein in Example 1. Cells of E. coli strain AB1157 were incubated in Sorensen buffer at a selected temperature for a selected period in the presence of a selected concentration histone H1. In selected assays, the medium also contained between 0 and about 10% (v/v) human or bovine serum. The fractional survival of histone H1-contacted cells, relative to cells not contacted with histone H1 was determined as described herein in Example 4. […]

The subject of data set [2] is Bacillus cereus. Kind of data set: Percent reduction in colony formation (spectrum of antibiotic activity). Format: cell-based. The settings on record: 37° C. As to the method:
(§1) Histone H1 suspended in Sorensen buffer was added to aliquots of individual bacterial cultures to achieve a final concentration of either 1.9 micromolar or 3.8 micromolar. No histone H1 was added to individual control culture aliquots. The aliquots were thereafter incubated at 37° C. for either ten minutes or forty-five minutes, and the aliquots were plated on appropriate solid or semisolid media.

The subject of data set [3] is Bacillus megaterium. Described as above. The conditions noted are these: 37° C. The format is cell-based. The procedure: as §1
Data set [4] relates to Bacillus subtilis. The data set is described as above. Format: cell-based. The conditions noted are these: Incubation time 10 minutes; [Histone H1] 1.9 micromolar; 37° C. As to the method:
as §1

Data set [5] deals with Enterococcus faecalis. The description is as above. Format: cell-based. The settings on record: 37° C. As to the method:
as §1

In data set [6] the test system is Escherichia coli strain AB1157. Described as above. The format is cell-based. The conditions noted are these: 37° C. The procedure:
as §1

Data set [7] deals with Proteus mirabilis. The data set is described as above. Format: cell-based. The settings on record: Incubation time 10 minutes; [Histone H1] 1.9 micromolar; 37° C. The procedure:
as §1

In data set [8] the test system is Pseudomonas aeruginosa. Described as above. The settings on record: 37° C. The format is cell-based. The procedure: as §1
Data set [9] deals with Salmonella enteritidis. The data set is described as above. The format is cell-based. The conditions noted are these: Incubation time 10 minutes; [Histone H1] 1.9 micromolar; 37° C. As to the method: as §1
Data set [10] relates to Serratia marcescens. The description is as above. Format: cell-based. The settings on record: Incubation time 10 minutes; [Histone H1] 1.9 micromolar; 37° C. The procedure: as §1
Data set [11] deals with Staphylococcus aureus. The data set is described as above. Format: cell-based. The conditions noted are these: 37° C. The procedure:
as §1

For data set [12], the system named is penicillin-resistant E. coli strain derived from strain AB1157. Kind of data set: Bacteriocidal effect upon penicillin-resistant bacteria (fractional survival). The format is cell-based, Escherichia coli. The conditions noted are these: histone H1 in Sorensen buffer, 37° C. From the text:
Cells of E. coli strain AB1157 were made penicillin-resistant by culturing them in penicillin-containing growth media over a period of several days. The resulting population was completely resistant to penicillin.

In data set [13] the test system is various strains of E. coli isolated from urinary tract infections. As to the kind of experiment: Exposure time dependence of antibiotic activity, urinary tract infection isolates. Format: cell-based, Escherichia coli. The settings on record: after thirty minutes; all strains. The procedure: Histone H1 suspended in Sorensen buffer was added to aliquots of individual bacterial cultures to achieve a final concentration of either 1.9 micromolar or 3.8 micromolar. No histone H1 was added to individual control culture aliquots. […]

The test system of data set [14] is E. coli strain AB1157. As to the kind of experiment: Membrane damage by Sytox Green dye and flow cytometer. Format: cell-based, Escherichia coli. The conditions noted are these: 0.4, 0.95 and 1.9 μM histone H1, 37° C., various time intervals. The procedure:
Membrane damage of E. coli cells was determined at various time intervals, using the dye Sytox Green and a flow cytometer as described (Roth et al., 1997, Appl. Env. Microbiol. 63:2421-2431).
For orientation: A flow cytometer gives signals particle by particle.

In data set [15] the test system is E. coli strain AB1157. Kind of data set: Binding of histone H1 to bacteria (activity of medium pre-contacted with cells). The format is cell-based, Escherichia coli. The settings on record: forty-five minutes pre-incubation with E. coli cells, decanted medium re-inoculated. As to the method:
An aliquot of cells of E. coli strain AB1157 was incubated with histone H1 as described herein in Example 4. After forty-five minutes of incubation, cells were removed by centrifugation and decanting.

Data set [16] relates to bacterial cells. As to the kind of experiment: Toxic concentration for bacterial cells. The format is cell-based.
The test system of data set [17] is E. coli strain AB1157. As to the kind of experiment: Thermal stability of histone H1 (antibiotic activity after storage). The conditions noted are these: for fractional survival of cells: 40 micrograms per milliliter, 37° C., ten minutes. The format is cell-based, Escherichia coli. As to the method: In a first experiment, purified histone H1 was stored at −80° C. for more than thirty-six months.
In a second experiment, aliquots of purified histone H1 were separately stored at −80° C., at 4° C., and at 37° C. for twenty hours. […] The fractional survival of cells incubated with histone H1 stored at −80° C. was about 0.1%. The fractional survival of cells incubated with histone H1 stored at 4° C. was about 1%. The fractional survival of cells incubated with histone H1 stored at 37° C. was about 6%.

For data set [18], the system named is E. coli strain AB1157. Kind of data set: Development of bacterial resistance to histone H1. Format: cell-based, Escherichia coli. The conditions noted are these: FIG. 6. The procedure: Purified bovine histone H1 is prepared as described herein in Example 1. Cells of E. coli strain AB1157 are incubated in aliquots of Sorensen buffer containing various set concentrations of histone H1. The aliquot having the highest histone H1 concentration in which cells proliferate (as indicated, for example, by turbidity of the buffer) is used to seed cultures having even higher histone H1 concentrations. This process is repeated until cells are isolated which grow at a concentration of histone H1 that is normally toxic to E. coli cells.

Data set [19] deals with non-cancerous eukaryotic cells.
Data set [20] has as its system animal cells. The settings on record: on the order of; cited from earlier work.
Data set [21] relates to E. coli strain AB1157. Kind of data set: Inhibition of the antibiotic activity of histone H1 by heparin. The format is cell-based, Escherichia coli. The conditions noted are these: 4 micrograms per milliliter histone H1, 37° C., ten minutes. As to the method:
In selected assays, the incubation medium also contained a selected concentration of heparin, in the range from 0 to about 250 units per milliliter.

The mark [22] stands for this setting: Incubation time 10 minutes, [Histone H1] 1.9 micromolar.
Setting [23] is: Incubation time 10 minutes, [Histone H1] 3.8 micromolar.
Setting [24] is: Incubation time 45 minutes, [Histone H1] 1.9 micromolar.
[25] abbreviates: Incubation time 45 minutes, [Histone H1] 3.8 micromolar.

As for histone H1, the “lowest H1 concentration at which significant cytotoxicity was observed” value in [1] came to 0.24 µM. The “dependence of antibiotic activity on serum” value in data set [1] (0 to about 10% (v/v) human AB serum or fetal calf serum) is “independent of serum concentrations at concentrations at least as high as 10% (v/v) serum”. In addition, the “incubation time sufficient to achieve maximal cytotoxic effect” value in [1] (1.9 micromolar H1, 37° C.) is “less than ten”. For the same molecule, in data set [1] (1.9 micromolar histone H1, 4° C., 30° C., 37° C.), the “temperature dependency of bactericidal effect” value is “significantly greater at 37 °C than at either 4 °C or 30 °C”. Moreover, the “E. coli cells killed” value in [1] (histone H1 concentration less than 1 micromolar, twenty minutes in Sorensen buffer) is given as “more than 98%”. In addition, the “Percent Reduction in Colony Formation” value worked out at 11.8% in data set [2] (setting [22]); 50.7% in data set [2] (setting [23]); 42.5% in data set [2] (setting [24]); 77.4% in data set [2] (setting [25]); 93.3% in data set [3] (setting [22]); 91.2% in data set [3] (setting [23]). Moreover, the “Percent Reduction in Colony Formation” value in [3] (setting [24]) worked out at 92.9%; in data set [3] (setting [25]), 99.3%; in [4] it was 97.4%; in data set [5] (setting [22]) it was 0.0%; in data set [5] (setting [23]), 0.0%; in data set [5] (setting [24]), 0.0%. In addition, the “Percent Reduction in Colony Formation” value in data set [5] (setting [25]) turned out to be 0.0%; in data set [6] (setting [22]), 99.6%; in [6] (setting [23]), 99.9%; in data set [6] (setting [24]), 99.7%; in data set [6] (setting [25]) it was 100%; in [7], 0.0%. Moreover, the “Percent Reduction in Colony Formation” value in [8] (setting [22]) is on record as 99.6%; in [8] (setting [23]) it was 100%; in [8] (setting [24]), 100%; in data set [8] (setting [25]), 100%; in [9], greater than 99%; in [10], 14.0%. Besides, the “Percent Reduction in Colony Formation” value in [11] (setting [22]), in data set [11] (setting [23]), in data set [11] (setting [24]) and in data set [11] (setting [25]) was 0.0% in each case. In addition, in [12], the “killing of penicillin-resistant cells compared with wild type cells” value was “killed penicillin-resistant cells approximately as efficiently as it killed wild type cells”. Further, the survival result in [13] is listed as “less than 3%”. Further, the “fraction of the cells which exhibited membrane damage” value in [14] is given as “dependent on the concentration of histone H1”. The binding to bacteria entry in data set [15] was “binds specifically to bacteria in a non-reversible manner”. The toxic concentration result is on record as “less than 80 micrograms per milliliter” in [16] (bacterial cells) and “more than 200 or 250 micrograms per milliliter” in [19]. Further, the “concentrations that induce death of bacterial cells” value in [16] (relatively low concentrations, as described herein) fell in the range of 0.2 to 4 µM. For the same molecule, the entries for the “fractional survival of cells” value in [17] (histone H1 stored at 4° C. for twenty hours), in data set [17] (histone H1 stored at 37° C. for twenty hours) and in data set [17] (histone H1 stored at −80° C. for twenty hours) were “about 1%”, “about 6%” and “about 0.1%”, respectively. Moreover, the “antibiotic activity after storage” value in data set [17] (stored at −80° C. for more than thirty-six months) is given as “not significantly decreased”. For the same molecule, the “development of resistance of E. coli cells to the antibiotic activity” value in data set [18] is “can develop resistance”. Besides, in data set [20], the “concentrations that may induce death of animal cells” value was 10 to 100 µM.

Consider `NC[C@H]1O[C@H](O[C@H]2[C@H](O)[C@@H](O[C@H]3O[C@H](CO)[C@@H](O)[C@H](N)[C@H]3O)[C@H](N)C[C@@H]2N)[C@H](O)[C@@H](O)[C@@H]1O` [kanamycin, reference compound], for which the cytotoxicity result in [1] (1.9 micromolar, 37° C., ten minutes, Sorensen buffer) is “no measurable cytotoxicity”.

Take heparin: in [21], the “heparin concentration at which histone H1 exhibited essentially no antibiotic activity” value is given as “greater than 150 units per milliliter” and the “lowest heparin concentration that reduced the antibiotic activity of histone H1” value is given as 6.2 units per milliliter.

B1: Trypsin: Protease used to digest histone H1; tested alone as control (protein, UniProt P00760 24-246, looked up)
Serine protease 1: IVGGYTCGANTVPYQVSLNSGYHFCGGSLINSQWVVSAAHCYKSGIQVRLGEDNINVVEGNEQFISASKSIVHPSYNSNTLNNDIMLIKLKSAASLNSRVASISLPTSCASAGTQCLISGWGNTKSSGTSYPDVLKCLKAPILSDSSCKSAYPGQITSNMFCAGYLEGGKDSCQGDSGGPVVCSGKLQGIVSWGSGCAQKNKPGVYTKVCNYVSWIKQTIASN
In the case of B1, the “effect on survival of the bacteria” value in data set [1] (trypsin alone) is “had no effect on the survival of the bacteria”.
